Tested on: uptake of 14C-cholesterol in the liver
Experiment: Cholesterol absorption test (14C-cholesterol uptake in the liver) in NMRI mice
Format: in vivo
Procedure: The compound of the invention of the formula I (ammonium salt) was tested for its effect using the method described below:
NMRI mice (in groups of n=4-6) are kept with a standard diet (altromin, lage (lippe)) in metabolism cages. The animals are fasted from the afternoon before administration of the radioactive tracer (^14C-cholesterol) and adapted to wire grids.
In addition, the animals are labeled with ^3H-TCA (taurocholic acid) s.c. 24 hours before the oral administration of the test meal (^14C-cholesterol in Intralipid® 20, Pharmacia-Upjohn) (e.g. 1 μCi/mouse to 5 μCi/rat).
Cholesterol absorption test: 0.25 ml/mouse Intralipid® 20 (Pharmacia-Upjohn) (spiking with 0.25 μCi ^14C-cholesterol in 0.1 mg of cholesterol) is administered orally by gavage.
Test substances are made up separately in 0.5%/(methylcellulose (Sigma)/5% Solutol (BASF, Ludwigshafen) or a suitable vehicle.
The volume for administration of the test substance is 0.5 ml/mouse. The test substance is administered immediately before the test meal (Intralipid with ^14C-cholesterol label) (cholesterol absorption test).
The livers are removed, homogenized and combusted in aliquots in an oximate (model 307, Packard) to determine the amount of ^14C-cholesterol taken up/absorbed.
The amount of ^14C-cholesterol taken up in the liver is related to the dose administered. […]

| Compound | ED50 (liver) (NMRI mice, oral, test substance given immediately before 14C-cholesterol test meal, dose which halves uptake of 14C-cholesterol in the liver relative to control) [mg/mouse] | activity relative to comparison compound LVIII from WO 2004/000804 (times better) (ratio of ED50 (liver) values) [times] |
| --- | --- | --- |
| N.O=C(Oc1ccc([C@@H]2[C@@H](CC[C@H](O)c3ccc(F)cc3)C(=O)N2c2ccc(F)cc2)c(F)c1)N1CCN(S(=O)(=O)O)CC1 [I (ammonium salt), Ammonium 4-(3-fluoro-4-{(2S,3R)-1-(4-fluorophenyl)-3-[(S)-3-(4-fluoro-phenyl)-3-hydroxylpropyl]-4-oxoazetidin-2-yl}phenoxycarbonyl)piperazine-1-sulfonate] | 0.01 | – |
| O=C(Oc1ccc([C@@H]2[C@@H](CC[C@H](O)c3ccc(F)cc3)C(=O)N2c2ccc(F)cc2)c(F)c1)N1CCN(S(=O)(=O)O)CC1 [I] | – | 10 |

From patent publication US20090264402A1, “NOVEL DIPHENYLAZETIDINONE SUBSTITUTED BY PIPERAZINE-1-SULFONIC ACID AND HAVING IMPROVED PHARMACOLOGICAL PROPERTIES” (SANOFI-AVENTIS DEUTSCHLAND GMBH, priority 2006, published 2009)
